Like-named read-outs stand apart in the source and are kept apart here.
What was measured:
human GLP-1 receptor = molecular target: T1, human GLP-1 receptor (Homo sapiens, UniProt P43220); assay: cAMP production in cell line stably transformed with human GLP1 receptor, 30 min co-incubation (HTRF); type: cell-based; conditions: CHO-K1/GLP-1R/CRE-luc cells, stimulation for 0.5 h
T1 construct: expressed in transfected cells
Method: The purpose of this assay example is to test the ability of the compound to activate the human GLP-1 receptor on cell surface. The EC50 for stimulated cAMP production after activation characterizes the ability of the compound to activate the human GLP-1 receptor.
In this experiment, the compound and cells were co-incubated for 30 min.
Frozen cell line CHO-K1/GLP-1R/CRE-luc stably transformed with human GLP1 receptor was removed from a liquid nitrogen tank, and was placed in a 37°C water bath for rapid thawing. The cells were resuspended in DMEM/F12 medium, and after centrifugation, were washed once. The cells were resuspended in an experimental buffer, i.e., DMEM/F12 medium containing 0.1% casein. After centrifugation, cell density was adjusted using the experimental buffer. The cells were plated onto a 384-well plate at a density of 1500 cells/5 µL/well. Then, each well was added with 2.5 µL of IBMX working solution prepared with the buffer, the final concentration of IBMX being 0.5 mM, and 2.5 µL of a serially diluted compound sample (starting from […], 3-fold dilution, 12 concentrations). The plate was centrifuged at 1000 rpm for 1 min, and was stood for incubation at 37°C for 0.5 h. Determination was performed using the Cisbio cAMP - Gs Dynamic kit. cAMP-d2 and anti-cAMP-Eu3+-Cryptate were diluted 18-fold and 20-fold respectively with cAMP Lysis & Detection Buffer, and were respectively mixed homogeneously. Each well was added with 5 µL of diluted cAMP-d2 solution, and the plate was centrifuged at 1000 rpm for 1 min, and shaken for 30 seconds for homogeneous mixing. Then, each well was added with 5 µL of diluted anti-cAMP-Eu3+-Cryptate solution, and the plate was centrifuged at 1000 rpm for 1 min and was incubated in the dark at room temperature for 1 h. HTRF signals were read using the Biotek Synergy H1 microplate reader, the excitation wavelength being 320 nm and the emission wavelengths being 620 nm and 665 nm.
The signal-to-signal ratio was calculated (665 nm/620 nm * 10,000). Nonlinear fitting between the signal-to-signal ratio and the sample concentration was performed in GraphPad Prism 10 using a four-parameter equation to obtain the EC50 value.

[1] = Pharmacokinetic evaluation in mice, oral administration; type: in vivo, Balb/c mice; conditions: p.o. 5 mg/kg, plasma, single PK; for AUC(0-inf) / AUC(0-t) / Cmax / Tmax / MRT inf: mouse, in vivo, po; for MRT inf: read-out: MRT 0-∞
Outline: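 Male Balb/c mice (n=3) dosed p.o. at 5 mg/kg after overnight fast, vehicle 10% PEG400/10% PG/80% glycine buffer (pH 10), 0.5 mg/mL. EDTA plasma, acetonitrile precipitation, compound quantified by LC/MS/MS; PK parameters by noncompartmental-style software calculation.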

[2] = Pharmacokinetic evaluation in Macaca fascicularis monkeys, oral administration; type: in vivo; conditions: cynomolgus monkey, p.o. 5 mg/kg, plasma; for MRT inf: read-out: MRT 0-∞
Method: Macaca fascicularis monkeys were used as test animals to study the pharmacokinetic behavior of the compound of the present invention, administered orally at a dose of 5 mg/kg, in Macaca fascicularis monkeys (plasma).
Macaca fascicularis monkeys, 3 per group, male.
Preparation of drug for oral administration: 10%PEG400/10%PG/80% glycine buffer (100 mM glycine, 64 Mm NaOH, […]) buffer.
Single PK: The compound of the present invention was weighed into a 100 mL glass bottle, and the solution was added. The pH was first adjusted with 1 M NaOH until the compound dissolves to obtain a clear solution, and then the pH was readjusted to pH 9.0-9.5 with 1 M HCl. Sonication was performed for 10 min to obtain a colorless clear solution having a concentration of 1 mg/mL.
Three Macaca fascicularis monkeys, male, respectively administered p.o. after fasting overnight, at a dose of 5 mg/kg and in an administration volume of 5 mL/kg.
Blood collection: 0.3 mL of blood was collected from the forelimb vein of the Macaca fascicularis monkeys before administration and at 0.25, 0.5, 1, 2, 4, 6, 8, and 24 h after administration. The blood samples were placed in EDTA-K2 anticoagulant tubes and centrifuged at 6000 rpm at 4°C for 6 min to separate plasma, which was stored at -80°C. The Macaca fascicularis monkeys were fed 4 h after administration.
• 1) 40 µL of a plasma sample was added with 160 µL of acetonitrile for precipitation, and after mixing, the mixture was centrifuged at 3500 × g for 5 to 20 min. • 2) The supernatant solution after treatment was taken for LC/MS/MS analysis of the concentration of the test compound. The LC/MS/MS analysis instrument was AB Sciex API 4000 Qtrap.
• Liquid phase condition: Shimadzu LC-20AD pump • Chromatographic column: Agilent ZORBAX XDB-C18 (50×2.1 mm, 3.5 µm) Mobile phase: Solution A was 0.1% formic acid aqueous solution, and Solution B was acetonitrile • Flow rate: 0.4 mL/min • Elution time: 0-4.0 min, the eluent was as follows: […]

T1 sequence (P43220 24-463): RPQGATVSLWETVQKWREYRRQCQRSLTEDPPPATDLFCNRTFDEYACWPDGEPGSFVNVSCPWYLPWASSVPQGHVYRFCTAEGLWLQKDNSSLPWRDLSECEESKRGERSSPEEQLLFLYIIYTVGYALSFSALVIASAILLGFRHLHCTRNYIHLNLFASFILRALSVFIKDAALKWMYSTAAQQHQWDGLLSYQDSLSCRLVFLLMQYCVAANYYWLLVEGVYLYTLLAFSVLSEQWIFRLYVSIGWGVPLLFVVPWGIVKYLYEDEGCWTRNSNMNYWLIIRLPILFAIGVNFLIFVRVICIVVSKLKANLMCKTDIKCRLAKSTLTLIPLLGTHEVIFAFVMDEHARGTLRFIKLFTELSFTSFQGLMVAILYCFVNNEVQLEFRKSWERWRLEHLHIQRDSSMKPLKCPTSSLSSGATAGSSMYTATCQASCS

SMILES | AUC(0-inf) [1] [ng·h/mL] | AUC(0-t) [1] [ng·h/mL] | Cmax [1] [ng/mL] | Tmax [1] [h] | MRT inf [1] [h] | tl/2 [1] [h] | further results
CC#C[C@H]1C[C@]1(c1noc(=O)[nH]1)n1c(C(=O)N2CCc3nn(-c4cc(C)c(F)c(C)c4)c(-n4ccn(-c5ccc6c(cnn6C6CC6)c5F)c4=O)c3[C@@H]2C)cc2cc([C@H]3CCOC(C)(C)C3)ccc21 [Example 144, 3-((1S,2R)-1-(2-((S)-3-(3-(1-cyclopropyl-4-fluoro-1H-indazole-5-yl)-2-carbonyl-2,3-dihydro-1H-imidazole-1-yl)-2-(4-fluoro-3,5-dimethylphenyl)-4-methyl-4,5,6,7-tetrahydro-2H-pyrazolo[4,3-c]pyridin-5-carbonyl)-5-((S)-2,2-dimethyltetrahydro-2H-pyrano-4-yl)-1H-indole-1-yl)-2-(propyl-1-alkynyl-1-yl)cyclopropyl)-1,2,4-oxadiazol-5(4H)-one] | 35100 | 23500 | 2240 | 3 | 20.8 | 15.7 | EC50 (human GLP-1 receptor; read-out: EC50): 1 nM
C#C[C@H]1C[C@]1(c1noc(=O)[nH]1)n1c(C(=O)N2CCc3nn(-c4cc(C)c(F)c(C)c4)c(-n4ccn(-c5ccc6c(cnn6C6CC6)c5F)c4=O)c3[C@@H]2C)cc2cc([C@H]3CCOC(C)(C)C3)ccc21 [Example 143] |  |  |  |  |  | 6.9 | AUC(0-inf) ([1]; male, Balb/c): 13300 ng·h/mL; AUC(0-t) ([1]; male, Balb/c): 12200 ng·h/mL; Cmax ([1]; male, Balb/c): 1200 ng/mL; Tmax ([1]; male, Balb/c): 2 h; MRT inf ([1]; male, Balb/c): 9 h; AUC(0-inf) ([2]; male): 26200 ng·h/mL; AUC(0-t) ([2]; male): 26000 ng·h/mL; Cmax ([2]; male): 4040 ng/mL; Tmax ([2]; male): 2.7 h; half-life ([2]; male): 3.2 h; MRT inf ([2]; male): 5.1 h
Cc1cc(-n2nc3c(c2-n2ccn(-c4ccc5c(cnn5C5CC5)c4F)c2=O)[C@H](C)N(C(=O)c2cc4cc([C@H]5CCOC(C)(C)C5)ccc4n2[C@@]2(c4noc(=O)[nH]4)C[C@@H]2COC2CC2)CC3)cc(C)c1F [Example 67] | 12100 | 11200 | 1430 | 4 | 8.2 | 7.6 | EC50 (human GLP-1 receptor): 1.4 nM
[2H]C([2H])([2H])n1nc2c3c(c(-n4ccn(-c5c6c(nn5-c5cc(C)c(F)c(C)c5)CCN(C(=O)c5cc7cc([C@H]8CCOC(C)(C)C8)ccc7n5[C@@]5(c7noc(=O)[nH]7)C[C@@H]5C)[C@H]6C)c4=O)ccc31)OCCC2 [Example 282, 3-((1S,2S)-1-(5-((S)-2,2-dimethyltetrahydro-2H-pyran-4-yl)-2-((S)-2-(4-fluoro-3,5-dimethylphenyl)-4-methyl-3-(3-(2-(methyl-d3)-2,7,8,9-tetrahydrooxaheptano[4,3,2-cd]indazol-5-yl)-2-carbonyl-2,3-dihydro-1H-imidazol-1-yl)-4,5,6,7-tetrahydro-2H-pyrazolo[4,3-c]pyridine-5-carbonyl)-1H-indol-1-yl)-2-methylcyclopropyl)-1,2,4-oxadiazol-5(4H)-one] | 18200 | 15000 | 1510 | 2 | 13 | 9.7 | AUC(0-inf) [2]: 17000 ng·h/mL; AUC(0-t) [2]: 7560 ng·h/mL; Cmax [2]: 570 ng/mL; Tmax [2]: 4 h; half-life [2]: 47.6 h; MRT inf [2]: 68.9 h

Source: EP4755885A1 (Shanghai Hansoh Biomedical Co., Ltd., priority 2023, dated 2025)
